Results published in patent publication US20240408216A1, “PROTEIN INHIBITOR OR DEGRADING AGENT, PHARMACEUTICAL COMPOSITION CONTAINING SAME AND PHARMACEUTICAL USE” (JING MEDICINE TECHNOLOGY (SHANGHAI) LTD., priority 2021, published 2024).
Like-named read-outs stand apart in the source and are kept apart here.

Columns and labels:
BaF3 (EGFR WT) = assay: Cell proliferation IC50 assay (Cell Titer GLO), BaF3 WT cells; type: cell-based; conditions: Mus musculus, Ba/F3 EGFR, 72 h
Outline: (§1)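 Each cell line, plated at 2000-4000 cells/well, received serially diluted compound for 72 h (37° C, 5% CO2) before luminescent ATP-based viability detection. IC50 values were derived from growth inhibition relative to DMSO-treated and cell-free blank wells.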

[1] = tested on: BaF3 (EGFR L858R/T790M/C797S); assay: Cell proliferation IC50 assay (Cell Titer GLO), BaF3 LTC cells; type: cell-based; conditions: Mus musculus, Ba/F3 EGFR
Outline: as §1

[2] = tested on: BaF3 (EGFR Del19/T790M/C797S); assay: Cell proliferation IC50 assay (Cell Titer GLO), BaF3 DTC cells; type: cell-based; conditions: Mus musculus, Ba/F3 EGFR-Del19/T790M/C797S
Procedure: (§2) IC50 of compounds in the present invention was determined by Cell Titer GLO reagent from Promega. The procedures are as follows:
(§3) Tumor cells were cultured in specified medium in an incubator at 37° C. and 5% CO2. The cells were passaged periodically. Cells at the logarithmic growth phase were collected for plating at a density of 2000-4000 cells/well. The next day, the compounds of the present invention were serially diluted and added to the cells, with DMSO being the negative control and the culture media without cells being the blank control. The plate was incubated in the incubator for 72 h. The cell viability assay was performed by adding the detection reagents to the cell culture media according to Cell Titer GLO reagent instructions and detecting luminescent signals on an EnVision microplate reader (PerkinElmer).
(§4) Inhibition of cell growth by the compounds of the present invention was plotted by Prism Graphpad software for statistically calculating the IC50 of the compound of the present invention.

A431 = assay: Cell proliferation IC50 assay (Cell Titer GLO), A431 cells; type: cell-based; conditions: Homo sapiens, A-431, A431, 72 h, read-out: A431 IC50
Outline: as §1

BaF3 patent = assay: Cell proliferation IC50 assay (Cell Titer GLO), BaF3 parental cells; type: cell-based; conditions: Mus musculus
Procedure: as §2, §3, §4

BaF3 (EGFR Del19/C797S) = target: T1, BaF3 (EGFR Del19/C797S) (Homo sapiens, UniProt P00533, C797S, cells depend on it, form not given); assay: Cell proliferation IC50 assay (Cell Titer GLO), BaF3 DC cells; type: cell-based, mouse; conditions: Table 6, 72 h
T1 construct: BaF3 (EGFR Del19/C797S)|DC|RPMI1640 + 10% FBS
T1 sequence (P00533 with tags, fused parts or gaps DEL746-750/C797S, form open): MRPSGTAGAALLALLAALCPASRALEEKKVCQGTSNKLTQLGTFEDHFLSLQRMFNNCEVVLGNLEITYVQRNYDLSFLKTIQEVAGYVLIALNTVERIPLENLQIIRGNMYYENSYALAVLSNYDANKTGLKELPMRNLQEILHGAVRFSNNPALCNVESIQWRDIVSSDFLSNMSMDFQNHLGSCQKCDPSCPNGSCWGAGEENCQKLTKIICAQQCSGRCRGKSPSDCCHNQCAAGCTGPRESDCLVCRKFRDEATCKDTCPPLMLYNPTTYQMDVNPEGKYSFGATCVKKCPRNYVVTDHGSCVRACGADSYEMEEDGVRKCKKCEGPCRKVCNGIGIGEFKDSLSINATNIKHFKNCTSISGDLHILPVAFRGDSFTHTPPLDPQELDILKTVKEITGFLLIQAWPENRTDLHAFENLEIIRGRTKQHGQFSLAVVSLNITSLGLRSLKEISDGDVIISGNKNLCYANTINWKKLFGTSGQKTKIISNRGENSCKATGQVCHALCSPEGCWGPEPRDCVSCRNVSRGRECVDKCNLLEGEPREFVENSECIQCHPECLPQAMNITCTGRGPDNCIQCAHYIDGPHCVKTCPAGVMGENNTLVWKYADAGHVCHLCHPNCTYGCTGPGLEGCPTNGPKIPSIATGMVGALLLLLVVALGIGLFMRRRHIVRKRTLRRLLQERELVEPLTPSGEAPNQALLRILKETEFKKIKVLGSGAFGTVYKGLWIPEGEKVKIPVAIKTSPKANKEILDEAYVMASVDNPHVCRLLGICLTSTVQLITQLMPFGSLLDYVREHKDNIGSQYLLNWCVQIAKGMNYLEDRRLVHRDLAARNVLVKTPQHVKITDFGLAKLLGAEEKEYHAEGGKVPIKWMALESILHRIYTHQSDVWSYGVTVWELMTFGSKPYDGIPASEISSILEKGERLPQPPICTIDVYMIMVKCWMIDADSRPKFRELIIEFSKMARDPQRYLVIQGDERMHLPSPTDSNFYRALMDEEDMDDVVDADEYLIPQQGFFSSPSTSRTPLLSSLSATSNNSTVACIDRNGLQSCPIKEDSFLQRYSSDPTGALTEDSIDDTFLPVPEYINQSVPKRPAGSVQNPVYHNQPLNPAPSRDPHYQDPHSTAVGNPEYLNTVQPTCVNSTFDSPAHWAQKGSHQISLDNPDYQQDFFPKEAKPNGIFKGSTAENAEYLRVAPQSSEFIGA
Outline: as §1

SMILES	IC50 (BaF3 (EGFR WT); Table 5, 10 ng/ml EGF)	IC50 ([1]; Table 5, 72 h)	IC50 ([2]; Table 5, 72 h)	IC50 (A431; Table 5)	IC50 (BaF3 patent; Table 5, 10 ng/ml mIL3, 72 h)	IC50 (BaF3 (EGFR WT); Table 6, 10 ng/ml EGF)	IC50 ([1]; Table 6, 72 h)	IC50 (BaF3 (EGFR Del19/C797S))	IC50 (A431; Table 6)	IC50 (BaF3 patent; Table 6, 10 ng/ml mIL3, 72 h)	IC50 ([2]; Table 6, 72 h)
CP(C)(=O)c1ccccc1Nc1nc(Nc2ccc(N3CCC4(CCN(CCCC#Cc5cccc6c5CN(C5CCC(=O)NC5=O)C6=O)CC4)CC3)c(Cl)c2)ncc1Cl (centres unmarked) [Example E18]	724 nM	266 nM	30.9 nM	2180 nM	786 nM	–	–	–	–	–	–
CCc1cc(Nc2ncc(Br)c(Nc3ccc4c(c3P(C)(C)=O)OCCO4)n2)c(OC)cc1N1CCC2(CCN(CCCC#Cc3cccc4c3CN(C3CCC(=O)NC3=O)C4=O)CC2)CC1 (centres unmarked) [Example E28]	955 nM	57.9 nM	11.2 nM	1390 nM	695 nM	–	–	–	–	–	–
CCc1cc(Nc2ncc(Cl)c(Nc3ccccc3P(C)(C)=O)n2)c(OC)cc1N1CCC(N2CCN(CC#Cc3cccc4c3CN(C3CCC(=O)NC3=O)C4=O)CC2)CC1 (centres unmarked) [Example E25]	1370 nM	57.2 nM	13.7 nM	1260 nM	1210 nM	–	–	–	–	–	–
CCc1cc(Nc2ncc(Cl)c(Nc3ccccc3P(C)(C)=O)n2)c(OC)cc1N1CCC(N2CCN(CCCCOc3cccc4c3CN(C3CCC(=O)NC3=O)C4=O)CC2)CC1 (centres unmarked) [Example E30]	636 nM	11.9 nM	1.6 nM	1020 nM	410 nM	–	–	–	–	–	–
COc1cc(N2CCC(N3CCN(CCC#Cc4cccc5c4CN(C4CCC(=O)NC4=O)C5=O)CC3)CC2)ncc1Nc1ncc(Cl)c(Nc2ccccc2P(C)(C)=O)n1 (centres unmarked) [Example E71]	–	–	–	–	–	1550 nM	62.3 nM	54.4 nM	> 4000 nM	719 nM	–
COc1cc(N2CCC(N3CCN(CC#Cc4cccc5c4CN(C4CCC(=O)NC4=O)C5=O)CC3)CC2)ccc1Nc1ncc(Cl)c(Nc2ccccc2P(C)(C)=O)n1 (centres unmarked) [Example C-3, reference compound]	587 nM	129 nM	43.7 nM	1210 nM	475 nM	–	–	–	–	–	–
COc1cc(N2CCC(N3CCN(CCC#Cc4cccc5c4CN(C4CCC(=O)NC4=O)C5=O)CC3)CC2)c(C)cc1Nc1ncc(Cl)c(Nc2ccccc2P(C)(C)=O)n1 (centres unmarked) [Example E3]	287 nM	46.6 nM	14.3 nM	–	521 nM	–	–	–	–	–	–
CCc1cc(Nc2ncc(Cl)c(Nc3ccccc3P(C)(C)=O)n2)c(OC)cc1N1CCC(N2CCN(CCCc3cccc4c3CN(C3CCC(=O)NC3=O)C4=O)CC2)CC1 (centres unmarked) [Example E26]	517 nM	53.5 nM	8 nM	1090 nM	546 nM	–	–	–	–	–	–
CCc1cc(Nc2ncc(Cl)c(Nc3ccccc3P(C)(C)=O)n2)ccc1N1CCC(N2CCN(CCC#Cc3cccc4c3CN(C3CCC(=O)NC3=O)C4=O)CC2)CC1 (centres unmarked) [Example E9]	28.4 nM	11.2 nM	5.6 nM	392 nM	20.7 nM	–	–	–	–	–	–
COc1cc(N2CCC(N3CCN(CCC#Cc4cccc5c4CN(C4CCC(=O)NC4=O)C5=O)CC3)CC2)c(C)cc1Nc1ncc(Br)c(Nc2ccc3c(c2P(C)(C)=O)OCCO3)n1 (centres unmarked) [Example E43]	–	–	–	–	–	330 nM	15.8 nM	6.6 nM	1060 nM	122 nM	–
COc1cc(N2CCC3(CCN(CCCC#Cc4cccc5c4CN(C4CCC(=O)NC4=O)C5=O)CC3)CC2)c(Cl)cc1Nc1ncc(Cl)c(Nc2ccccc2P(C)(C)=O)n1 (centres unmarked) [Example E11]	236 nM	61.3 nM	17.1 nM	> 4000 nM	147 nM	–	–	–	–	–	–
COc1cc(N2CCC(N3CCC4(CCC(Oc5cccc6c5CN(C5CCC(=O)NC5=O)C6=O)CC4)C3)CC2)ccc1Nc1ncc(Cl)c(Nc2ccccc2P(C)(C)=O)n1 (centres unmarked) [Example C-6, reference compound]	79.2 nM	33.6 nM	7.8 nM	342 nM	93 nM	–	–	–	–	–	–
COc1cc(N2CCC(N3CCC4(CCC(Oc5cccc6c5CN(C5CCC(=O)NC5=O)C6=O)CC4)C3)CC2)c(C2CC2)cc1Nc1ncc(Cl)c(Nc2ccccc2P(C)(C)=O)n1 (centres unmarked) [Example E27]	937 nM	29.8 nM	3.3 nM	1190 nM	375 nM	–	–	–	–	–	–
CCc1cc(Nc2ncc(Br)c(Nc3ccc4c(c3P(C)(C)=O)OCCO4)n2)c(OC)cc1N1CCC(N2CCN(CCC#Cc3cccc4c3CN(C3CCC(=O)NC3=O)C4=O)CC2)CC1 (centres unmarked) [Example E22]	–	–	–	–	–	275 nM	34.1 nM	4.1 nM	1050 nM	385 nM	–
COc1cc(N2CCC(N3CCN(CCCCCc4ccc5c(c4)CN(C4CCC(=O)NC4=O)C5=O)CC3)CC2)ccc1Nc1ncc(Cl)c(Nc2ccccc2P(C)(C)=O)n1 (centres unmarked) [Example C-5, reference compound]	1630 nM	103 nM	22.5 nM	1230 nM	570 nM	–	–	–	–	–	–
CCc1cc(Nc2ncc(Cl)c(Nc3ccccc3P(C)(C)=O)n2)c(OC)cc1N1CCC(N2CCC3(CCC(Oc4cccc5c4CN(C4CCC(=O)NC4=O)C5=O)CC3)C2)CC1 (centres unmarked) [Example E21]	636 nM	16.8 nM	1.9 nM	1010 nM	410 nM	–	–	–	–	–	–
CCc1cc(Nc2ncc(Cl)c(Nc3ccccc3P(C)(C)=O)n2)c(OC)cc1N1CCC(N2CCC3(CCC(=Cc4cccc5c4CN(C4CCC(=O)NC4=O)C5=O)CC3)C2)CC1 (centres unmarked) [Example E40]	–	–	–	–	–	260 nM	17.5 nM	4.9 nM	1210 nM	131 nM	–
CCc1cc(Nc2ncc(Cl)c(Nc3ccccc3P(C)(C)=O)n2)c(OC)cc1N1CCC2(CCN(CCCC#Cc3ccc4c(c3)CN(C3CCC(=O)NC3=O)C4=O)CC2)CC1 (centres unmarked) [Example E16]	> 4000 nM	348 nM	55.6 nM	> 4000 nM	> 4000 nM	–	–	–	–	–	–
COc1cc(N2CCC(N3CCN(CCC#Cc4cccc5c4CN(C4CCC(=O)NC4=O)C5=O)CC3)CC2)c(C)cc1Nc1ncc(Br)c(Nc2ccccc2P(C)(C)=O)n1 (centres unmarked) [Example E7]	–	–	–	–	–	134 nM	42.7 nM	14.9 nM	–	271 nM	–
CCc1cc(Nc2ncc(Cl)c(Nc3ccccc3P(C)(C)=O)n2)c(OC)cc1N1CCC(N2CCN(CCC#Cc3ccc4c(c3)CN(C3CCC(=O)NC3=O)C4=O)CC2)CC1 (centres unmarked) [Example E24]	1550 nM	70.6 nM	35.4 nM	1460 nM	1260 nM	–	–	–	–	–	–
CN(CCCC#Cc1cccc2c1CN(C1CCC(=O)NC1=O)C2=O)C1CC2(CCN(c3ccc(Nc4ncc(Cl)c(Nc5ccccc5P(C)(C)=O)n4)cc3Cl)CC2)C1 (centres unmarked) [Example E14]	69 nM	55.2 nM	7.8 nM	377 nM	84.2 nM	–	–	–	–	–	–
CCc1cc(Nc2ncc(Cl)c(Nc3ccccc3P(C)(C)=O)n2)c(OC)cc1N1CCC(N2CCN(CCCCCc3cc4c(cc3F)C(=O)N(C3CCC(=O)NC3=O)C4)CC2)CC1 (centres unmarked) [Example E19]	> 4000 nM	61.1 nM	8.9 nM	1070 nM	> 4000 nM	–	–	–	–	–	–
COc1cc(N2CCC(N3CCN(CCC#Cc4cccc5c4CN(C4CCC(=O)NC4=O)C5=O)CC3)CC2)c(Cl)cc1Nc1ncc(Cl)c(Nc2ccccc2P(C)(C)=O)n1 (centres unmarked) [Example E10]	101 nM	28.4 nM	15.5 nM	1210 nM	54.9 nM	–	–	–	–	–	–
COc1cc(N2CCC(N3CCN(CCCc4cccc5c4CN(C4CCC(=O)NC4=O)C5=O)CC3)CC2)ccc1Nc1ncc(Cl)c(Nc2ccccc2P(C)(C)=O)n1 (centres unmarked) [Example C-4, reference compound]	–	70.7 nM	41.7 nM	–	142 nM	–	–	–	–	–	–
CCc1cc(Nc2ncc(Cl)c(Nc3ccccc3P(C)(C)=O)n2)c(OC)cc1N1CCC(N2CCC3(CCC(Cc4cccc5c4CN(C4CCC(=O)NC4=O)C5=O)CC3)C2)CC1 (centres unmarked) [Example E45]	–	–	–	–	–	585 nM	21.2 nM	8.5 nM	1240 nM	221 nM	–
CCc1cc(Nc2ncc(-c3cnn(C)c3)c(Nc3ccccc3P(C)(C)=O)n2)c(OC)cc1N1CCC(N2CCN([C@H]3C[C@@H](Oc4cccc5c4CN(C4CCC(=O)NC4=O)C5=O)C3)CC2)CC1 (some centres unmarked) [Example E69]	–	–	–	–	–	168 nM	114 nM	0.7 nM	344 nM	–	15.3 nM
CCc1cc(Nc2ncc(Cl)c(Nc3ccccc3P(C)(C)=O)n2)c(OC)cc1N1CCC(N2CCN(CCCCOc3cccc4c3CN(C3CCC(=O)NC3=O)C4=O)C(=O)C2)CC1 (centres unmarked) [Example E87]	–	–	–	–	–	> 4000 nM	51.8 nM	5.3 nM	3800 nM	–	11.5 nM
